Measured values as given in patent publication US7265152B2 (ViroPharma Incorporated, priority 2002, dated 2007).

Key:
[1] = system: HCV replicon (BB7 sequence) in Huh-7-Clone A cells; assay: HCV replicon assay: ELISA of NS5A protein in replicon-containing cells (Inhibition of Viral RNA Replication); format: cell-based; conditions: Hepatitis C virus; Huh-7-Clone A, NS5A ELISA, 72-hour incubation; ranges of EC50; read-out: Replicon
Source text: Antiviral activity of representative compounds of the invention was first evaluated in a human liver-derived cell line (Huh-7-Clone A) containing the HCV replicon (BB7 sequence) (See Lohmann et al. Science. 1999, 285:110-3; Blight K J et al., Science. 2000, 290:1972-4; Pietschmann, T. et al., J. Virol. 2001, 73:1252-1264; and Lohmann, V. et al., J. Virol. 2001, 75:1437-1449). The HCV replicon is a subgenomic viral RNA that expresses the HCV proteins required for its own replication. These proteins include non-structural proteins NS3, NS4A, NS4B, NS5A and NS5B. The replicon also contains a foreign gene encoding a drug-selectable marker (neomycin phosphotransferase) to allow for G418 (neomycin) selection of cells that contain the replicon.
An ELISA (enzyme-linked immunosorbant assay) was used to determine the effect of compounds within the scope of the invention on the amount of HCV NS5A protein produced after a 72-hour incubation of the replicon-containing cells in the presence of varying concentrations of compound. COSTAR® 96-well cell culture plates were used but other known cell culture plates may be used. After incubation, media is removed from wells and the cells are fixed to the assay plate using 0.05% glutaraldehyde. The glutaraldehyde is then washed off using phosphate-buffered saline (PBS) following a 1 hour incubation and cells are blocked for non-specific antibody binding using for example SUPERBLOCK® reagent (blocking buffer) in PBS. The blocking agent is rinsed from the cells with PBS after 1 hour at 37° C. and primary monoclonal antibody is added to each well containing compound. Primary antibody is incubated for 1 hour at 37° C. and rinsed 3 times with PBS containing 0.02% TWEEN-20™ before addition of Horseradish Peroxidase (HRP) conjugated secondary antibody. HRP is incubated for 1 hour at 37° C. and rinsed several times, first with PBS/TWEEN-20™ followed by PBS alone. To quantify peroxidase activity, 3,3′,5, 5′-tetramethylbenzidine (TMB) substrate is added to the plate and after 30 minutes, the plates are read in an ELISA plate reader at an OD of 650 nm. Compound dose response was measured in an 8-point dose curve diluted serially to determine the inhibitory concentration at 50% (EC50 value). […] Ranges of 50% effective concentrations (EC50s) for representative compounds within the scope of this invention are listed in Table 1. Preferred compounds have 50% effective concentrations at about 30 μM or less, more preferred compounds have 50% effective concentrations at about 5 μM or less, and most preferred compounds have 50% effective concentrations at about 0.5 μM or less.

[2] = molecular target: T1, HCV NS5B (Hepatitis C virus genotype 1b, UniProt Q9WMX2); assay: Inhibition of viral RNA-dependent RNA polymerase (RdRp), in vitro biochemical assay; set-up: species or system HCV genotype 1b virus (BB7); conditions: purified His-tagged NS5B (BB7), carboxyl terminal 21 amino acids removed; read-out: HCV pol-BB7 IC50
T1 construct: fusion protein, of which the carboxyl terminal 21 amino acids were removed to enhance its solubility; His tag (GSHHHHHH); made in house; host or cells: E. coli
Outline: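 IC50 values are the concentrations that halve in vitro RNA synthesis by HCV NS5B polymerase. The enzyme was a C-terminally truncated (Δ21), His-tagged genotype 1b (BB7 consensus) protein purified from E. coli.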

Compound | EC50 [1] [nM] | IC50 [2] [nM]
CNC(=O)c1c(-c2ccc(F)cc2)oc2cc(N)c(OC)cc12 [Example 17, 6-Amino-2-(4-fluoro-phenyl)-5-methoxy-benzofuran-3-carboxylic acid methylamide] | < 10000 | 500 to 5000
CNC(=O)c1c(-c2ccc(F)cc2)oc2cc(NC(C)=O)c(OC)cc12 [Example 18, 6-Acetylamino-2-(4-fluoro-phenyl)-5-methoxy-benzofuran-3-carboxylic acid methylamide] | < 1000 | ≤ 500
CNC(=O)c1c(-c2ccc(F)cc2)oc2cc(NC)c(OC(C)C)cc12 [Example 19, 2-(4-Fluoro-phenyl)-5-isopropoxy-6-methylamino-benzofuran-3-carboxylic acid methylamide] | < 1000 | ≤ 500
CNC(=O)c1c(-c2ccc(F)cc2)oc2cc(N(C)C)c(OC(C)C)cc12 [Example 20, 6-Dimethylamino-2-(4-fluoro-phenyl)-5-isopropoxy-benzofuran-3-carboxylic acid methylamide] | < 1000 | ≤ 500
CNC(=O)c1c(-c2ccc(F)cc2)oc2cc(NS(C)(=O)=O)c(OC(C)C)cc12 [Example 21, 2-(4-Fluoro-phenyl)-5-isopropoxy-6-methanesulfonylamino-benzofuran-3-carboxylic acid methylamide] | < 1000 | ≤ 500
CCNc1cc2oc(-c3ccc(F)cc3)c(C(=O)NC)c2cc1OC(C)C [Example 22, 6-Ethylamino-2-(4-fluoro-phenyl)-5-isopropoxy-benzofuran-3-carboxylic acid methylamide] | < 1000 | ≤ 500
CCN(CC)c1cc2oc(-c3ccc(F)cc3)c(C(=O)NC)c2cc1OC(C)C [Example 23, 6-Diethylamino-2-(4-fluoro-phenyl)-5-isopropoxy-benzofuran-3-carboxylic acid methylamide] | < 1000 | ≤ 500
CNC(=O)c1c(-c2ccc(F)cc2)oc2cc(N3CCOCC3)c(OC(C)C)cc12 [Example 24, 2-(4-Fluoro-phenyl)-5-isopropoxy-6-morpholin-4-yl-benzofuran-3-carboxylic acid methylamide] | < 1000 | ≤ 500
CNC(=O)c1c(-c2ccccc2)oc2ccc(OC)c(C)c12 [Example 25, 5-Methoxy-4-methyl-2-phenyl-benzofuran-3-carboxylic acid methylamide] | > 30000 | > 30000
CNC(=O)c1c(-c2ccccc2)oc2ccc(C#N)cc12 [Example 26, 5-Cyano-2-phenyl-benzofuran-3-carboxylic acid methylamide] | < 30000 | 5000 to 30000
CNC(=O)c1c(-c2ccncc2)oc2ccc(OC(C)C)cc12 [Example 27, 5-Isopropoxy-2-pyridin-4-yl-benzofuran-3-carboxylic acid methylamide] | > 30000 | 5000 to 30000
CNC(=O)c1c(-c2ccc(F)cc2)oc2cc(-c3c(C)noc3C)c(OC)cc12 [Example 28, 6-(3,5-Dimethyl-isoxazol-4-yl)-2-(4-fluoro-phenyl)-5-methoxy-benzofuran-3-carboxylic acid methylamide] | < 1000 | ≤ 500
CNC(=O)c1c(-c2ccc(F)cc2)oc2cc(N(C)S(C)(=O)=O)c(OC)cc12 [Example 29, 2-(4-Fluoro-phenyl)-6-(methanesulfonyl-methyl-amino)-5-methoxy-benzofuran-3-carboxylic acid methylamide] | < 1000 | ≤ 500
CNC(=O)c1c(-c2ccc(F)cc2)oc2cc(N3CCOCC3)c(OCc3ccc(OC)cc3)cc12 [Example 30, 2-(4-Fluoro-phenyl)-5-(4-methoxy-benzyloxy)-6-morpholin-4-yl-benzofuran-3-carboxylic acid methylamide] | < 1000 | ≤ 500
CNC(=O)c1c(-c2ccc(F)cc2)oc2cc(N(Cc3ccc(OC)cc3)S(C)(=O)=O)c(OCc3ccc(OC)cc3)cc12 [Example 31, 2-(4-Fluoro-phenyl)-6-[methanesulfonyl-(4-methoxy-benzyl)-amino]-5-(4-methoxy-benzyloxy)-benzofuran-3-carboxylic acid methylamide] | < 1000 | ≤ 500
CCOc1cc2c(C(=O)NC)c(-c3ccc(F)cc3)oc2cc1N(CC)S(C)(=O)=O [Example 32, 5-Ethoxy-6-(ethyl-methanesulfonyl-amino)-2-(4-fluoro-phenyl)-benzofuran-3-carboxylic acid methylamide] | < 1000 | ≤ 500
CNC(=O)c1c(-c2ccc(F)cc2)oc2cc(N3CCOCC3)c(OCc3nccs3)cc12 [Example 33, 2-(4-Fluoro-phenyl)-6-morpholin-4-yl-5-(thiazol-2-ylmethoxy)-benzofuran-3-carboxylic acid methylamide] | < 1000 | ≤ 500
CNC(=O)c1c(-c2ccc(F)cc2)oc2cc(N(CC(C)=O)S(C)(=O)=O)c(OC(C)C)cc12 [Example 34, 2-(4-Fluoro-phenyl)-5-isopropoxy-6-[methanesulfonyl-(2-oxo-propyl)-amino]-benzofuran-3-carboxylic acid methylamide] | < 1000 | ≤ 500
CNC(=O)c1c(-c2ccc(F)cc2)oc2cc(N3CCOCC3)c(OCc3cscn3)cc12 [Example 35, 2-(4-Fluoro-phenyl)-6-morpholin-4-yI-5-(thiazol-4-ylmethoxy)-benzofuran-3-carboxylic acid methylamide] | < 1000 | ≤ 500
CNC(=O)c1c(-c2ccc(F)cc2)oc2cc(N(Cc3cscn3)S(C)(=O)=O)c(OC(C)C)cc12 [Example 36, 2-(4-Fluoro-phenyl)-5-isopropoxy-6-(methanesulfonyl-thiazol-4-ylmethyl-amino)-benzofuran-3-carboxylic acid methylamide] | < 1000 | ≤ 500
CNC(=O)c1c(-c2ccc(F)cc2)oc2cc(-c3cc(CO)on3)c(OC(C)C)cc12 [Example 37, 2-(4-Fluoro-phenyl)-6-(5-hydroxymethyl-isoxazol-3-yl)-5-isopropoxy-benzofuran-3-carboxylic acid methylamide] | < 1000 | ≤ 500
CCOc1cc2c(C(=O)NC)c(-c3ccc(F)cc3)oc2cc1N(C)S(C)(=O)=O [Example 38, 5-Ethoxy-2-(4-fluoro-phenyl)-6-(methanesulfonyl-methyl-amino)-benzofuran-3-carboxylic acid methylamide] | < 1000 | ≤ 500
CNC(=O)c1c(-c2ccc(F)cc2)oc2cc(N(C)S(C)(=O)=O)c(OCc3ccc(C(=O)O)c(O)c3)cc12 [Example 39, 4-[2-(4-Fluoro-phenyl)-6-(methanesulfonyl-methyl-amino)-3-methylcarbamoyl-benzofuran-5-yloxymethyl]-2-hydroxy-benzoic acid] | < 10000 | ≤ 500
CNC(=O)c1c(-c2ccc(F)cc2)oc2cc(-c3cc(CO)on3)c(OC)cc12 [Example 40, 2-(4-Fluoro-phenyl)-6-(5-hydroxymethyl-isoxazol-3-yl)-5-methoxy-benzofuran-3-carboxylic acid methylamide] | < 1000 | ≤ 500
CNC(=O)c1c(-c2ccc(F)cc2)oc2cc(-c3nocc3CCO)c(OC)cc12 [Example 41, 2-(4-Fluoro-phenyl)-6-[4-(2-hydroxy-ethyl)-isoxazol-3-yl]-5-methoxy-benzofuran-3-carboxylic acid methylamide] | < 1000 | ≤ 500
CNC(=O)c1c(-c2ccc(F)cc2)oc2cc(N(CCO)S(C)(=O)=O)c(OC)cc12 [Example 42, 2-(4-Fluoro-phenyl)-6-[(2-hydroxy-ethyl)-methanesulfonyl-amino]-5-methoxy-benzofuran-3-carboxylic acid methylamide] | < 1000 | ≤ 500
